Laboratory results taken from PubChem BioAssay (NCI).
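All cell lines were grown in 96-well plates and treated with compound for 48 hours. TGI: total growth inhibition.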

How the values were obtained:
Test in all cases: DTP human tumour cell line panel, 48 h
[1] = test system: UACC-62 melanoma
[2] = test system: 786-0 renal
[3] = test system: DMS 114 small cell lung
[4] = test system: HL-60(TB) leukemia
[5] = test system: SNB-78 CNS
[6] = test system: HOP-18 NSCLC
[7] = test system: XF 498 CNS
[8] = test system: M19-MEL melanoma
[9] = test system: IGROV1 ovarian
[10] = test system: K-562 leukemia
[11] = test system: A498 renal
[12] = test system: A549 NSCLC
[13] = test system: SNB-75 CNS
[14] = test system: HCT-15 colon
[15] = test system: NCI-H522 lung
[16] = test system: OVCAR-8 ovarian
[17] = test system: SN12C renal
[18] = test system: SW-620 colon
[19] = test system: CAKI-1 renal
[20] = test system: SF-295 CNS
[21] = test system: DLD-1 colon
[22] = test system: HOP-92 NSCLC
[23] = test system: LXFL 529 NSCLC
[24] = test system: EKVX NSCLC
[25] = test system: HOP-62 NSCLC
[26] = test system: NCI-H460 lung
[27] = test system: M14 melanoma
[28] = test system: U251 CNS
[29] = test system: HCT-116 colon
[30] = test system: SK-OV-3 ovarian
[31] = test system: SK-MEL-2 melanoma
[32] = test system: KM12 colon
[33] = test system: UO-31 renal
[34] = test system: RXF 393 renal
[35] = test system: COLO 205 colon
[36] = test system: OVCAR-4 ovarian
[37] = test system: SR leukemia
[38] = test system: OVCAR-5 ovarian
[39] = test system: HCC-2998 colon
[40] = test system: TK-10 renal
[41] = test system: ACHN renal
[42] = test system: SF-268 CNS
[43] = test system: DMS 273 small cell lung
[44] = test system: SK-MEL-28 melanoma
[45] = test system: SNB-19 CNS
[46] = test system: CCRF-CEM leukemia
[47] = test system: UACC-257 melanoma
[48] = test system: OVCAR-3 ovarian
[49] = test system: MALME-3M melanoma
[50] = test system: NCI-H226 lung
[51] = test system: NCI-H23 lung
[52] = test system: HT29 colon
[53] = test system: SF-539 CNS
[54] = test system: RPMI-8226 leukemia
[55] = test system: KM20L2 colon
[56] = test system: RXF-631 renal
[57] = test system: SK-MEL-5 melanoma
[58] = test system: MOLT-4 leukemia

What does the source list for `CS(=O)(=O)Oc1cccc(/C=N/N=C(\N)NO)c1`?
TGI [1]: 19.5 µM; TGI [2]: 54.3 µM; TGI [3]: > 100 µM; TGI [4]: 52.4 µM; TGI [5]: > 100 µM; TGI [6]: > 100 µM; TGI [7]: 32.5 µM; TGI [8]: > 100 µM; TGI [9]: > 100 µM; TGI [10]: > 100 µM; TGI [11]: > 100 µM; TGI [12]: > 100 µM; TGI [13]: > 100 µM; TGI [14]: > 100 µM; TGI [15]: > 100 µM; TGI [16]: > 100 µM; TGI [17]: > 100 µM; TGI [18]: 63.4 µM; TGI [19]: > 100 µM; TGI [20]: > 100 µM; TGI [21]: > 100 µM; TGI [22]: > 100 µM; TGI [23]: > 100 µM; TGI [24]: > 100 µM; TGI [25]: > 100 µM; TGI [26]: > 100 µM; TGI [27]: > 100 µM; TGI [28]: > 100 µM; TGI [29]: > 100 µM; TGI [30]: 70.8 µM; TGI [31]: > 100 µM; TGI [32]: > 100 µM; TGI [33]: > 100 µM; TGI [34]: > 100 µM; TGI [35]: > 100 µM; TGI [36]: > 100 µM; TGI [37]: > 100 µM; TGI [38]: > 100 µM; TGI [39]: 59.1 µM; TGI [40]: 27.9 µM; TGI [41]: 66.1 µM; TGI [42]: > 100 µM; TGI [43]: 65.8 µM; TGI [44]: > 100 µM; TGI [45]: > 100 µM; TGI [46]: > 100 µM; TGI [47]: > 100 µM; TGI [48]: > 100 µM; TGI [49]: > 100 µM; TGI [50]: 95.6 µM; TGI [51]: > 100 µM; TGI [52]: > 100 µM; TGI [53]: > 100 µM

Which results are given for `CSCC1CC(c2ccc(Cl)cc2)=NO1` (stereo not drawn)?
TGI [1]: > 100 µM; TGI [2]: > 100 µM; TGI [3]: > 100 µM; TGI [4]: > 100 µM; TGI [5]: > 100 µM; TGI [6]: > 100 µM; TGI [8]: > 100 µM; TGI [9]: > 100 µM; TGI [10]: > 100 µM; TGI [54]: > 100 µM; TGI [11]: > 100 µM; TGI [12]: > 100 µM; TGI [13]: > 100 µM; TGI [14]: > 100 µM; TGI [15]: > 100 µM; TGI [16]: > 100 µM; TGI [17]: > 100 µM; TGI [18]: > 100 µM; TGI [19]: > 100 µM; TGI [20]: > 100 µM; TGI [21]: > 100 µM; TGI [22]: > 100 µM; TGI [23]: > 100 µM; TGI [55]: > 100 µM; TGI [24]: > 100 µM; TGI [25]: > 100 µM; TGI [26]: > 100 µM; TGI [27]: > 100 µM; TGI [28]: > 100 µM; TGI [29]: > 100 µM; TGI [30]: > 100 µM; TGI [31]: > 100 µM; TGI [56]: > 100 µM; TGI [32]: > 100 µM; TGI [33]: > 100 µM; TGI [35]: > 100 µM; TGI [57]: > 100 µM; TGI [36]: > 100 µM; TGI [37]: > 100 µM; TGI [38]: > 100 µM; TGI [39]: > 100 µM; TGI [40]: > 100 µM; TGI [58]: > 100 µM; TGI [41]: > 100 µM; TGI [42]: > 100 µM; TGI [43]: > 100 µM; TGI [44]: > 100 µM; TGI [46]: > 100 µM; TGI [47]: > 100 µM; TGI [48]: > 100 µM; TGI [49]: > 100 µM; TGI [50]: > 100 µM; TGI [51]: > 100 µM; TGI [52]: > 100 µM; TGI [53]: > 100 µM
